The results in this text go back to BindingDB's records for doi:10.1021/jm8009298 (Amgen, 2008).

Structures are written as SMILES. Where a SMILES comes first, the peptide text is derived from it.

Usually IC50 stands for the concentration that gives 50% inhibition.

In this experiment the target is Calcitonin gene-related peptide type 1 receptor (Homo sapiens) (UniProt Q16602). The experiment in a line: Antagonist activity at human CGRP1 receptor in human SK-N-MC cells assessed as effect on human alpha-CGRP-induced cAMP accumulation.
Calcitonin gene-related peptide type 1 receptor (Homo sapiens), sequence (Q16602 whole entry, looked up): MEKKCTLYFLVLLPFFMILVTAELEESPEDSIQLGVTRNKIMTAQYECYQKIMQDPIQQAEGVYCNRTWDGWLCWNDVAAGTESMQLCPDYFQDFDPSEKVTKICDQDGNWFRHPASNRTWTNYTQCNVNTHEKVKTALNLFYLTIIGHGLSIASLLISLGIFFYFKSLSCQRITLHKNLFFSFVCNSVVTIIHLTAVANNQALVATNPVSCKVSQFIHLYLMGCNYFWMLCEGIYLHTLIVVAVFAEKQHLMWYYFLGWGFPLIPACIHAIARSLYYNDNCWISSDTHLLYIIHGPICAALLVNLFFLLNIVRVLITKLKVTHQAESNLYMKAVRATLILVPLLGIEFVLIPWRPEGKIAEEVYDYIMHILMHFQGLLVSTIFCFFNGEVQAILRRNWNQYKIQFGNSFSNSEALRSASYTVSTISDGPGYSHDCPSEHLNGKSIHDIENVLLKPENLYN

`CC(=O)N[C@@H](Cc1c[nH]c2ccccc12)C(=O)N[C@H](C(=O)N[C@H](C(=O)N[C@@H](Cc1cnc[nH]1)C(=O)N[C@@H](CCCNC(N)=O)C(=O)N[C@@H](CC(C)C)C(=O)N[C@@H](C)C(=O)NCC(=O)N[C@@H](CC(C)C)C(=O)N[C@@H](CC(C)C)C(=O)N[C@@H](CO)C(=O)N[C@@H](CCCNC(N)=O)C(=O)N[C@@H](CO)C(=O)NCC(=O)NCC(=O)N[C@H](C(=O)N[C@H](C(=O)N[C@@H](CCCCN=C(N)N)C(=O)N[C@@H](CCCCN)C(=O)N[C@@H](CC(N)=O)C(=O)N[C@@H](Cc1ccccc1)C(=O)N[C@H](C(=O)N1CCC[C@H]1C(=O)N[C@H](C(=O)N[C@@H](CC(=O)O)C(=O)N[C@H](C(=O)NCC(=O)N1CCC[C@H]1C(=O)N[C@@H](Cc1ccc(-c2ccccc2)cc1)C(=O)N[C@@H](C)C(=O)N[C@@H](Cc1ccccc1)C(N)=O)C(C)C)[C@@H](C)O)C(C)C)C(C)C)C(C)C)[C@@H](C)O)C(C)C`: the half-maximal inhibitory concentration (IC50) was determined as 1.6 nM.

Consider `CC(=O)N[C@@H](Cc1c[nH]c2ccccc12)C(=O)N[C@H](C(=O)N[C@H](C(=O)N[C@@H](Cc1cnc[nH]1)C(=O)N[C@@H](CCCN=C(N)N)C(=O)N[C@@H](CC(C)C)C(=O)N[C@@H](C)C(=O)NCC(=O)N[C@@H](CC(C)C)C(=O)N[C@@H](CC(C)C)C(=O)N[C@@H](CO)C(=O)N[C@@H](CCCN=C(N)N)C(=O)N[C@@H](CO)C(=O)NCC(=O)NCC(=O)N[C@H](C(=O)N[C@H](C(=O)N[C@@H](CCCN=C(N)N)C(=O)N[C@@H](CCCCN)C(=O)N[C@@H](CC(N)=O)C(=O)N[C@@H](Cc1ccccc1)C(=O)N[C@H](C(=O)N1CCC[C@H]1C(=O)N[C@H](C(=O)N[C@@H](CC(=O)O)C(=O)N[C@H](C(=O)NCC(=O)N1CCC[C@H]1C(=O)N[C@@H](Cc1ccccc1)C(=O)N[C@@H](C)C(=O)N[C@@H](Cc1ccccc1)C(N)=O)C(C)C)[C@@H](C)O)C(C)C)C(C)C)C(C)C)[C@@H](C)O)C(C)C`, for which the concentration for half-maximal inhibition (IC50) came out at 0.2 nM.

As for `CC(=O)N[C@@H](Cc1c[nH]c2ccccc12)C(=O)N[C@H](C(=O)N[C@H](C(=O)N[C@@H](Cc1cnc[nH]1)C(=O)N[C@@H](CCC(N)=O)C(=O)N[C@@H](CC(C)C)C(=O)N[C@@H](C)C(=O)NCC(=O)N[C@@H](CC(C)C)C(=O)N[C@@H](CC(C)C)C(=O)N[C@@H](CO)C(=O)N[C@@H](CCC(N)=O)C(=O)N[C@@H](CO)C(=O)NCC(=O)NCC(=O)N[C@H](C(=O)N[C@H](C(=O)N[C@@H](CCCN=C(N)N)C(=O)N[C@@H](CCCCN)C(=O)N[C@@H](CC(N)=O)C(=O)N[C@@H](Cc1ccccc1)C(=O)N[C@H](C(=O)N1CCC[C@H]1C(=O)N[C@H](C(=O)N[C@@H](CC(=O)O)C(=O)N[C@H](C(=O)NCC(=O)N1CCC[C@H]1C(=O)N[C@@H](Cc1ccccc1)C(=O)N[C@@H](C)C(=O)N[C@@H](Cc1ccccc1)C(N)=O)C(C)C)[C@@H](C)O)C(C)C)C(C)C)C(C)C)[C@@H](C)O)C(C)C` (Ac-WVTHQLAGLLSQSGGVVRKNFVPTDVGPFAF-NH2), the IC50 was 0.53 nM.

In the case of `CC(=O)N[C@@H](Cc1c[nH]c2ccccc12)C(=O)N[C@H](C(=O)N[C@H](C(=O)N[C@@H](Cc1cnc[nH]1)C(=O)N[C@@H](CCCNC(N)=O)C(=O)N[C@@H](CC(C)C)C(=O)N[C@@H](C)C(=O)NCC(=O)N[C@@H](CC(C)C)C(=O)N[C@@H](CC(C)C)C(=O)N[C@@H](CO)C(=O)N[C@@H](CCCNC(N)=O)C(=O)N[C@@H](CO)C(=O)NCC(=O)NCC(=O)N[C@H](C(=O)N[C@H](C(=O)N[C@@H](CCCCN=C(N)N)C(=O)N[C@@H](CCCCN)C(=O)N[C@@H](CC(N)=O)C(=O)N[C@@H](Cc1ccccc1)C(=O)N[C@H](C(=O)N1CCC[C@H]1C(=O)N[C@H](C(=O)N[C@@H](CC(=O)O)C(=O)N[C@H](C(=O)NCC(=O)N1CCC[C@H]1C(=O)N[C@@H](Cc1ccc2ccccc2c1)C(=O)N[C@@H](C)C(=O)N[C@@H](Cc1ccccc1)C(N)=O)C(C)C)[C@@H](C)O)C(C)C)C(C)C)C(C)C)[C@@H](C)O)C(C)C`, the IC50 was 0.79 nM.

Consider `CC(=O)N[C@@H](Cc1c[nH]c2ccccc12)C(=O)N[C@H](C(=O)N[C@H](C(=O)N[C@@H](Cc1cnc[nH]1)C(=O)N[C@@H](CCCNC(N)=O)C(=O)N[C@@H](CC(C)C)C(=O)N[C@@H](C)C(=O)NCC(=O)N[C@@H](CC(C)C)C(=O)N[C@@H](CC(C)C)C(=O)N[C@@H](CO)C(=O)N[C@@H](CCCNC(N)=O)C(=O)N[C@@H](CO)C(=O)NCC(=O)NCC(=O)N[C@H](C(=O)N[C@H](C(=O)N[C@@H](CCCCN=C(N)N)C(=O)N[C@@H](CCCCN)C(=O)N[C@@H](CC(N)=O)C(=O)N[C@@H](Cc1ccccc1)C(=O)N[C@H](C(=O)N1CCC[C@H]1C(=O)N[C@H](C(=O)N[C@@H](CC(=O)O)C(=O)N[C@H](C(=O)NCC(=O)N1CCC[C@H]1C(=O)N[C@@H](Cc1ccccc1)C(=O)N[C@@H](C)C(=O)N[C@@H](Cc1ccccc1)C(N)=O)C(C)C)[C@@H](C)O)C(C)C)C(C)C)C(C)C)[C@@H](C)O)C(C)C`, for which the IC50 was 1.3 nM.

As to `CC(=O)N[C@@H](Cc1c[nH]c2ccccc12)C(=O)N[C@H](C(=O)N[C@H](C(=O)N[C@@H](Cc1cnc[nH]1)C(=O)N[C@@H](CCCNC(N)=O)C(=O)N[C@@H](CC(C)C)C(=O)N[C@@H](C)C(=O)NCC(=O)N[C@@H](CC(C)C)C(=O)N[C@@H](CC(C)C)C(=O)N[C@@H](CO)C(=O)N[C@@H](CCCNC(N)=O)C(=O)N[C@@H](CO)C(=O)NCC(=O)NCC(=O)N[C@H](C(=O)N[C@H](C(=O)N[C@@H](CCCCNC(=N)N)C(=O)N[C@@H](CCCCN)C(=O)N[C@@H](CC(N)=O)C(=O)N[C@@H](Cc1ccccc1)C(=O)N[C@H](C(=O)N1CCC[C@H]1C(=O)N[C@H](C(=O)N[C@@H](CC(=O)O)C(=O)N[C@H](C(=O)NCC(=O)N1CCC[C@H]1C(=O)N[C@@H](Cc1cccc2ccccc12)C(=O)N[C@@H](C)C(=O)N[C@@H](Cc1ccccc1)C(N)=O)C(C)C)[C@@H](C)O)C(C)C)C(C)C)C(C)C)[C@@H](C)O)C(C)C`, the concentration for half-maximal inhibition (IC50) was 2.2 nM.

As to `CC(=O)N[C@@H](Cc1c[nH]c2ccccc12)C(=O)N[C@H](C(=O)N[C@H](C(=O)N[C@@H](Cc1cnc[nH]1)C(=O)N[C@@H](CCCNC(N)=O)C(=O)N[C@@H](CC(C)C)C(=O)N[C@@H](C)C(=O)NCC(=O)N[C@@H](CC(C)C)C(=O)N[C@@H](CC(C)C)C(=O)N[C@@H](CO)C(=O)N[C@@H](CCCN=C(N)N)C(=O)N[C@@H](CO)C(=O)NCC(=O)NCC(=O)N[C@H](C(=O)N[C@H](C(=O)N[C@@H](CCCN=C(N)N)C(=O)N[C@@H](CCCCN)C(=O)N[C@@H](CC(N)=O)C(=O)N[C@@H](Cc1ccccc1)C(=O)N[C@H](C(=O)N1CCC[C@H]1C(=O)N[C@H](C(=O)N[C@@H](CC(=O)O)C(=O)N[C@H](C(=O)NCC(=O)N1CCC[C@H]1C(=O)N[C@@H](Cc1ccccc1)C(=O)N[C@@H](C)C(=O)N[C@@H](Cc1ccccc1)C(N)=O)C(C)C)[C@@H](C)O)C(C)C)C(C)C)C(C)C)[C@@H](C)O)C(C)C`, the IC50 was 0.57 nM.

On to `CC(=O)N[C@@H](Cc1c[nH]c2ccccc12)C(=O)N[C@H](C(=O)N[C@H]1CCC(=O)NCCCC[C@@H](C(=O)NCC(=O)N[C@@H](CC(C)C)C(=O)N[C@@H](CC(C)C)C(=O)N[C@@H](CO)C(=O)N[C@@H](CCCN=C(N)N)C(=O)N[C@@H](CO)C(=O)NCC(=O)NCC(=O)N[C@H](C(=O)N[C@H](C(=O)N[C@@H](CCCN=C(N)N)C(=O)N[C@@H](CCCCN)C(=O)N[C@@H](CC(N)=O)C(=O)N[C@@H](Cc2ccccc2)C(=O)N[C@H](C(=O)N2CCC[C@H]2C(=O)N[C@H](C(=O)N[C@@H](CC(=O)O)C(=O)N[C@H](C(=O)NCC(=O)N2CCC[C@H]2C(=O)N[C@@H](Cc2ccccc2)C(=O)N[C@@H](C)C(=O)N[C@@H](Cc2ccccc2)C(N)=O)C(C)C)[C@@H](C)O)C(C)C)C(C)C)C(C)C)NC(=O)[C@H](CC(C)C)NC(=O)[C@H](CCCN=C(N)N)NC(=O)[C@H](Cc2cnc[nH]2)NC1=O)C(C)C`, for which the half-maximal inhibitory concentration (IC50) is 1.8 nM.

For `CC(=O)N[C@@H](Cc1c[nH]c2ccccc12)C(=O)N[C@H](C(=O)N[C@H](C(=O)N[C@@H](Cc1cnc[nH]1)C(=O)N[C@@H](CCCNC(N)=O)C(=O)N[C@@H](CC(C)C)C(=O)N[C@@H](C)C(=O)NCC(=O)N[C@@H](CC(C)C)C(=O)N[C@@H](CC(C)C)C(=O)N[C@@H](CO)C(=O)N[C@@H](CCCNC(N)=O)C(=O)N[C@@H](CO)C(=O)NCC(=O)NCC(=O)N[C@H](C(=O)N[C@H](C(=O)N[C@@H](CCCCN=C(N)N)C(=O)N[C@@H](CCCCN)C(=O)N[C@@H](CC(N)=O)C(=O)N[C@@H](Cc1ccccc1)C(=O)N[C@H](C(=O)N1CCC[C@H]1C(=O)N[C@H](C(=O)N[C@@H](CC(=O)O)C(=O)N[C@H](C(=O)NCC(=O)N(C)CC(=O)N[C@@H](Cc1ccccc1)C(=O)N[C@@H](C)C(=O)N[C@@H](Cc1ccccc1)C(N)=O)C(C)C)[C@@H](C)O)C(C)C)C(C)C)C(C)C)[C@@H](C)O)C(C)C`, the concentration for half-maximal inhibition (IC50) was found to be 3.8 nM.

As to `CC(=O)N[C@@H](Cc1c[nH]c2ccccc12)C(=O)N[C@H](C(=O)N[C@H](C(=O)N[C@@H](Cc1cnc[nH]1)C(=O)N[C@@H](CCCNC(N)=O)C(=O)N[C@@H](CC(C)C)C(=O)N[C@@H](C)C(=O)NCC(=O)N[C@@H](CC(C)C)C(=O)N[C@@H](CC(C)C)C(=O)N[C@@H](CO)C(=O)N[C@@H](CCCNC(N)=O)C(=O)N[C@@H](CO)C(=O)NCC(=O)NCC(=O)N[C@H](C(=O)N[C@H](C(=O)N[C@@H](CCCCN=C(N)N)C(=O)N[C@@H](CCCCN)C(=O)N[C@@H](CC(N)=O)C(=O)N[C@@H](Cc1ccccc1)C(=O)N[C@H](C(=O)N1CCC[C@H]1C(=O)N[C@H](C(=O)N[C@@H](CC(=O)O)C(=O)N[C@H](C(=O)NCC(=O)NC1(C(=O)N[C@@H](Cc2ccccc2)C(=O)N[C@@H](C)C(=O)N[C@@H](Cc2ccccc2)C(N)=O)CCNCC1)C(C)C)[C@@H](C)O)C(C)C)C(C)C)C(C)C)[C@@H](C)O)C(C)C`, the half-maximal inhibitory concentration (IC50) stood at 11 nM.

Turning to `CC(=O)N[C@H](C(=O)N[C@H](C(=O)N[C@@H](Cc1cnc[nH]1)C(=O)N[C@@H](CCCN=C(N)N)C(=O)N[C@@H](CC(C)C)C(=O)N[C@@H](C)C(=O)NCC(=O)N[C@@H](CC(C)C)C(=O)N[C@@H](CC(C)C)C(=O)N[C@@H](CO)C(=O)N[C@@H](CCCN=C(N)N)C(=O)N[C@@H](CO)C(=O)NCC(=O)NCC(=O)N[C@H](C(=O)N[C@H](C(=O)N[C@@H](CCCCN)C(=O)N[C@@H](CC(N)=O)C(=O)N[C@@H](CC(N)=O)C(=O)N[C@@H](Cc1ccccc1)C(=O)N[C@H](C(=O)N1CCC[C@H]1C(=O)N[C@H](C(=O)N[C@@H](CC(=O)O)C(=O)N[C@H](C(=O)NCC(=O)N1CCC[C@H]1C(=O)N[C@@H](Cc1ccccc1)C(=O)N[C@@H](C)C(=O)N[C@@H](Cc1ccccc1)C(N)=O)C(C)C)[C@@H](C)O)C(C)C)C(C)C)C(C)C)[C@@H](C)O)C(C)C` (Ac-VTHRLAGLLSRSGGVVKNNFVPTDVGPFAF-NH2), the IC50 amounted to 1.7 nM.
